# Laboratory results published in article PMC3189933, “Acylpeptide Hydrolase Inhibition as Targeted Strategy to Induce Proteasomal Down-Regulation” (PLoS ONE, 2011).
# Experiments:
# [1] = test system: Caco-2 cells; experiment: LDH release cytotoxicity assay in Caco-2 cells; settings: 48 h
# Procedure: The release of LDH was used as the marker for cell toxicity [48]. The culture supernatants were sampled at the end of the incubations and centrifuged (4,000×g, 5 min, and 4°C). Aliquots of the clear supernatant (10 µL) were incubated with 190 µL reaction buffer (200 mM Tris/HCl, pH 8.0, 0.7 mM p-iodonitrotetrazolium violet, 50 mM L-lactic acid, 0.3 mM phenazine methoxysulphate, 0.4 mM NAD,) for 30 min at 37°C. Absorbance was measured at 490 nm and the results were expressed as percentages of total LDH release from control cultures treated with 1% (w/v) Triton X-100 and calculated as: [(experimental value - blank value)/(total lysis -blank value)−100].
# [2] = test system: polyubiquitinylated proteins in Caco-2 cells; experiment: Protein ubiquitinylation in Caco-2 cells (immunoblot); format: cell-based, human; settings: 48 h, 200 µM SsCEI 4 or t10c12-CLA, mixture, 100 µM ebelactone, 10 µM MG132, species 66 kDa to 160 kDa
# Description: The following antibodies were used: anti-APEH antibody (sc-102311; Santa Cruz Biotechnology); anti-NF-κB/p65 antibody (Thermo Scientific); anti-p21Waf1 antibody (Exbio); pan Ab-5 anti-actin antibody (clone ACTN05, Thermo Scientific); and monoclonal antibodies against polyubiquitinylated proteins conjugated with horseradish peroxidase (FK2H, Enzo, Life Science). The ΔF508CFTR-3HA protein was detected with an anti HA monoclonal antibody (Covance).
# [3] = test system: APEH in Caco-2 cells; experiment: APEH activity in Caco-2 cells; settings: differentiated Caco-2 cells, 200 µM, 48 h (maximum effect)
# Procedure: Porcine liver APEH activity was measured spectrophotometrically using the chromogenic substrate acetyl-Ala-pNA (Bachem). The reaction mixture (1 mL) containing pure APEH (38 ng) or an appropriate amount of cell extract in 50 mM Tris-HCl buffer pH 7.5 (Tris Buffer), was preincubated at 37°C for 2 min. Then, 1 mM acetyl-Ala-pNA was added and the release of p-nitroanilide (ε410 = 8800 M-1 cm-1) was measured by recording the absorbance increase at 410 nm on a Cary 100 Scan (Varian) UV/Vis spectrophotometer, equipped with a thermostated cuvette compartment. APEH activity was expressed in IU. The APEHSs activity was measured using acetyl-Leu-pNA (0.1 mM) (Sigma) as substrate. The reaction mixture (1 mL) containing the appropriate amount of enzyme in 25 mM Tris-HCl buffer pH 7.5, was preincubated at 80°C for 2 min. Then, 0.1 mM acetyl-Leu-pNA was added and the release of p-nitroanilide was measured, following the standard assay procedure described above.
# Caco-2 cells (ATCC) were cultivated in DMEM supplemented with 10% FBS, 1 mM glutamine and 100 units/mL penicillin-streptomycin at 37°C in a humidified 5% CO2 atmosphere. The cells were studied between passages 12 and 22. The cells were split using trypsin-EDTA solution and plated in 6-well plates at a density of 8×10^4 cells/mL and the medium was replaced every 2–3 days. Under these conditions, the cells reached visual confluence after 7 days and the differentiated stage two weeks later. The differentiated cells were incubated for 48 h with the different substances.
# Following the treatments, the BHK and Caco-2 cells were washed three times with ice cold phosphate-buffered saline and collected immediately at 4°C in lysis buffer (1% Triton X-100, 0.1% SDS, 20 mM Tris-HCl, pH 8.0, 150 mM NaCl, 0.5% sodium deoxycholate and complete protease inhibitors [Roche]). The lysates were centrifuged at 10,000×g for 15 min at 4°C. The protein concentrations in the clear supernatants were determined (BCA protein assay reagent kit; Pierce) before their use in enzymatic assays or SDS–PAGE.
# [4] = target: T1, porcine APEH (Sus scrofa, UniProt P19205); experiment: Time-dependent inhibition of APEH; format: biochemical; settings: pre-incubation at least 20 min at 37°C, then diluted 1:5 into assay mixture with substrate
# T1 construct: mammalian APEHs purified from both porcine liver and human colon carcinoma intestinal cells (Caco-2); purchased Takara; host or cells: porcine liver
# T1 sequence (P19205 1-732): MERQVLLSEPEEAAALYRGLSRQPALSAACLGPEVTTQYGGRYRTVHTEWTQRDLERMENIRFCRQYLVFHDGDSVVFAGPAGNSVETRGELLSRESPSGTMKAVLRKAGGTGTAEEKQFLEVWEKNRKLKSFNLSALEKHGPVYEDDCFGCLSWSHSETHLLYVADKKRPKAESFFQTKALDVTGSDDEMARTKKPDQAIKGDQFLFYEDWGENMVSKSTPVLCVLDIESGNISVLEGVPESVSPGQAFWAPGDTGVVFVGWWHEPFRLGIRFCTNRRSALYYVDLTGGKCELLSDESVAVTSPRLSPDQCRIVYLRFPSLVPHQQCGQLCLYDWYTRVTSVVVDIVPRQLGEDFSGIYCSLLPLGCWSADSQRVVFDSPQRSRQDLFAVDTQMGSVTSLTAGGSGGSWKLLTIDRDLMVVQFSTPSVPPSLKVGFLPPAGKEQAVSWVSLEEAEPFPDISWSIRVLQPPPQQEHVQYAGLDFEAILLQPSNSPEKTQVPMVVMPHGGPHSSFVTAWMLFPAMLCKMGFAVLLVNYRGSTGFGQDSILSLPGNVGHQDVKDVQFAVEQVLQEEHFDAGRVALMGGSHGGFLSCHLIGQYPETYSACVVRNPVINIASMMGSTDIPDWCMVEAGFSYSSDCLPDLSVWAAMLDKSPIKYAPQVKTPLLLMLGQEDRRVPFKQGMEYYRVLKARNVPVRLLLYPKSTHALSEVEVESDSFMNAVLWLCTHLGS
# Procedure: The time-dependent inhibition of SsCEI 4 and t10c12-CLA towards APEH was assessed. Mixtures containing appropriate amounts of each inhibitor and of APEH were pre-incubated for 20 min at 37°C; they were then diluted (1∶5) into the standard assay mixture, which contained the substrate only. The enzymatic activity was followed as described above. Control samples were prepared by pre-incubating the same amounts of APEH without the inhibitors and then diluted in the standard assay mixture.
# [5] = test system: proteasome CT-like activity in BHK cells; experiment: CT-like proteasome activity in BHK cells; format: cell-based, Baby Hamster; settings: 50 and 100 µM, 48 h
# Procedure: (§1) The cells were plated in 12-well plates, to a confluence of 60% for the 24-h incubations, and 40% for 48-h exposure to PIs. These treatments were initiated 24-h after the plating of the cells. Phase-contrast images of the cells were taken just before the lysis of the cells for protein analysis, using a Lica DM6000 inverted microscope.
# [6] = test system: BHK cells; experiment: Cytotoxicity in BHK cells; format: cell-based, Baby Hamster; settings: 100 µM, 24 h or 48 h; data not shown
# Procedure: as §1
smiles,measurement,setting,value
"CCCCC/C=C\C=C\CCCCCCCCC(=O)O [t10c12-CLA, trans10-cis12 CLA]",toxicity (LDH release) compared with MG132,"[1]; 200 µM SsCEI 4 or t10c12-CLA, 100 µM ebelactone, MG132 10 µM",significantly lower than that observed in culture incubated with MG132
same,cytotoxic effect (LDH activity levels),[1]; up to highest concentration 200 µM,not associated with any cytotoxic effect
same,polyubiquitin conjugates in cell extract,[2],presence of high-molecular-mass immunoreactive species
same,decrease of APEH activity in Caco-2 cells,[3],50%
same,inhibition of APEH after pre-incubation with the enzyme,[4],43%
same,proteasome CT-like activity in BHK cells,[5],dose-dependent inhibition
same,cytotoxic effects in BHK cells,[6],without any cytotoxic effects
